Activity calls are given as the source filed them. No cut-off for these calls is given here.
Legend:
[1] = Chemical stability of compound at pH 4.0 after 24 hrs; type: physicochemical; details: buffer, pH 4, 24 h
[2] = Chemical stability of compound at pH 7.4 after 24 hrs; type: physicochemical; details: buffer, pH 7.4, 24 h
Lanosterol synthase = biological target: T1, Lanosterol synthase (Homo sapiens, UniProt P48449); assay: Inhibition of human liver microsome 2,3-OSC after 1 hr by Silica gel plate phosphor imaging
T1 sequence (P48449 whole entry): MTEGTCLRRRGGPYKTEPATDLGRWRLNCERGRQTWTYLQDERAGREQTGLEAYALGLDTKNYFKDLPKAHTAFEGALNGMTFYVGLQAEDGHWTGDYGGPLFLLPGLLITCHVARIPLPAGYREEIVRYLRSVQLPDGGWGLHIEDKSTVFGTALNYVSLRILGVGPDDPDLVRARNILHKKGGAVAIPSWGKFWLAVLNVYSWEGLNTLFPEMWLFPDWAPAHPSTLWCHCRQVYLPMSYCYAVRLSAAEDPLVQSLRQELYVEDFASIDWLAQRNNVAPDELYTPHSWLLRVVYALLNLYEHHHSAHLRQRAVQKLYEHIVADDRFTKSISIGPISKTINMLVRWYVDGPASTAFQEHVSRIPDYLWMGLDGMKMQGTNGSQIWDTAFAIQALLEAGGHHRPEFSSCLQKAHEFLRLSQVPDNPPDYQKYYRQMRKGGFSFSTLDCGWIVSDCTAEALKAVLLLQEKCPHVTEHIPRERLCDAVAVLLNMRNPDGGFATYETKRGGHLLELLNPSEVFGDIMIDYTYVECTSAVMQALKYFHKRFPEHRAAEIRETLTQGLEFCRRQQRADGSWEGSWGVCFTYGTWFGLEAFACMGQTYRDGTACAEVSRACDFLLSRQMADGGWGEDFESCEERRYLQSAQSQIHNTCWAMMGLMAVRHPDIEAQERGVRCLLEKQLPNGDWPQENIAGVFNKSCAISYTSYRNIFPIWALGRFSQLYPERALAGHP

A549 = assay: Cytotoxicity against human A549 cells after 72 hrs by MTT assay; type: functional, cell-based; details: A549, 72 h
KB = assay: Cytotoxicity against human KB cells after 72 hrs by MTT assay; type: functional, cell-based
LNCaP = assay: Cytotoxicity against human LNCAP cells after 72 hrs by MTT assay; type: functional, cell-based
[3] = Cytotoxicity against human LNZ308 cells after 72 hrs by MTT assay; type: functional, cell-based; details: LNZ308, 72 h
[4] = Cytotoxicity against human Me300 cells after 72 hrs by MTT assay; type: functional, cell-based; details: Me300, 72 h
OVCAR = assay: Cytotoxicity against human OVCAR cells after 72 hrs by MTT assay; type: functional, cell-based
LN-18 [5] = assay: Inhibition of DNA synthesis in human LN18 cells assessed as inhibition of tritiated thymidine incorporation at 1 to 3 uM after 24 hrs by beta counting; type: functional, cell-based
LN-229 [6] = assay: Inhibition of DNA synthesis in human LN229 cells assessed as inhibition of tritiated thymidine incorporation at 1 to 3 uM after 24 hrs by beta counting; type: functional, cell-based
[7] = (§1) Cytotoxicity against human LN18 cells assessed as reduction in cell survival after 72 hrs by MTT assay; type: functional, cell-based; details: LN-18, 72 h
[8] = Cytotoxicity against human LN229 cells assessed as reduction in cell survival after 72 hrs by MTT assay; type: functional, cell-based; details: LN-229, 72 h
[9] = pampa, pH 6.5
Description: Permeability of compound at pH 6.5 assessed as compound binding to lipid membrane by PAMPA

Caco-2 = assay: cells; details: Homo sapiens, Caco-2, 72 h
Description: Cytotoxicity against human Caco2 cells after 72 hrs by MTT assay

HeLa = assay: cells; details: Homo sapiens, 72 h
Description: Cytotoxicity against human HeLa cells after 72 hrs by MTT assay

MCF7 = assay: cells; details: Homo sapiens, MCF7, 72 h
Description: Cytotoxicity against human MCF7 cells after 72 hrs by MTT assay

cells = details: Homo sapiens, HCEC, 72 h
Description: Cytotoxicity against human HCEC cells assessed as reduction in cell survival after 72 hrs by MTT assay

physchem = details: 1-octanol/TAPSO buffer, pH 7.4
Description: 1-Octanol-TAPSO buffer distribution coefficient, log D of the compound at pH 7.4 by shake-flask method

in vitro = details: pampa, pH 6.5
Description: Apparent permeability of compound at pH 6.5 by PAMPA

LN-18 [10] = assay: Inhibition of lipid synthesis in human LN18 cells assessed as [14C]acetate incorporation after 24 hrs by Beta-counting; type: functional, cell-based
LN-229 [11] = assay: Inhibition of lipid synthesis in human LN229 cells assessed as [14C]acetate incorporation after 24 hrs by Beta-counting; type: functional, cell-based
LN-18 [12] = assay: as §1; type: functional, cell-based
LN-18 [13] = assay: Cytotoxicity against human LN18 cells at 2 to 10 uM after 72 hrs by MTT assay in presence of atorvastatin; type: functional, cell-based
LN-229 [14] = assay: Cytotoxicity against human LN229 cells at 4 uM after 72 hrs by MTT assay in presence of atorvastatin; type: functional, cell-based

Row | SMILES | Stability [1] | Stability [2] | IC50 (Lanosterol synthase) | IC50 (A549) | IC50 (KB) | IC50 (LNCaP) | IC50 [3] | IC50 [4] | IC50 (OVCAR) | inhibition (LN-18 [5]) | inhibition (LN-229 [6]) | IC50 [7] | IC50 [8] | permeability [9] | IC50 (Caco-2) | IC50 (HeLa) | IC50 (MCF7) | IC50 (cells) | logD (physchem) | Papp (in vitro) | also measured
1 | C=CCN(C)CCCCC[C@H]1CC[C@H](N(C)C(=O)Oc2ccc(C(F)(F)F)cc2)CC1.O=C(O)CC(O)(CC(=O)O)C(=O)O | Stable | Stable | 0.005 µM | 6.93 µM | 1.02 µM | 4.62 µM | 2.1 µM | 16 µM | 12.9 µM | Active | Active | 2.8 µM | 8.3 µM | 25% | 6.3 µM | 1.06 µM | 20.7 µM | 5.1 µM | 3.48 | 13 ×10⁻⁶ cm/s | 
2 | CC(C)c1c(C(=O)Nc2ccccc2)c(-c2ccccc2)c(-c2ccc(F)cc2)n1CC[C@@H](O)C[C@@H](O)CC(=O)O [ATORVASTATIN CALCIUM] |  |  |  | > 30 µM | 1.97 µM | > 30 µM | 7.44 µM | 1.2 µM | > 30 µM | Active | Active | 6.9 µM | 8.1 µM |  |  | 4.22 µM | > 30 µM |  |  |  | inhibition (LN-18 [10]): Dose-dependent effect; inhibition (LN-229 [11]): Dose-dependent effect
3 | CN(CC[C@H]1CC[C@H](C(=O)N2CCC(O)CC2)CC1)C(=O)Oc1ccc(Cl)cc1 | Stable | Stable | 0.0287 µM | > 30 µM | 7.58 µM | 5.55 µM | > 30 µM | 25 µM | > 30 µM | Active | Active | > 30 µM | > 30 µM | 2% | > 30 µM | 21.8 µM | > 30 µM | > 30 µM | 2.93 | 5.05 ×10⁻⁶ cm/s | 
4 | CCN(CCO)C[C@H]1CC[C@H](CCN(C)C(=O)Oc2ccc(C(F)(F)F)cc2)CC1.O=C(O)CC(O)(CC(=O)O)C(=O)O | Stable | Stable | 0.0127 µM | 22.7 µM | 10 µM | > 30 µM | 23.2 µM | > 30 µM | > 30 µM | Active | Active | 18.9 µM | > 30 µM | 5% | 10 µM | 10 µM | > 30 µM | > 30 µM | 2.53 | 5.11 ×10⁻⁶ cm/s | 
5 | C=CCN(C)CCCCCCOc1ccc2c(-c3ccc(Br)cc3)nsc2c1.O=C(O)/C=C/C(=O)O | Stable | Stable |  | 6.06 µM | 8.52 µM | 19.5 µM | 4.4 µM | 13.4 µM | > 30 µM | Active | Active | 7.6 µM | 5.2 µM | 40% | 1.97 µM | 8.85 µM | 8.3 µM | 4.8 µM | 3.43 | 0.57 ×10⁻⁶ cm/s | Activity (LN-18 [12]): Dose-dependent effect; Activity (LN-18 [13]): Active; Activity (LN-229 [14]): Active
6 | CCCN(C)CCCC#C[C@H]1CC[C@H](N(C)C(=O)Oc2ccc(Cl)cc2)CC1.O=C(O)/C=C/C(=O)O | Stable | Stable | 0.0078 µM | 8.41 µM | 4.53 µM | 18.7 µM | 12.6 µM | 18.9 µM | > 30 µM | Active | Active | 28 µM | > 30 µM | 0% | 6.75 µM | 6.82 µM | > 30 µM | 26.3 µM | 3.28 | 0.81 ×10⁻⁶ cm/s | 
7 | CCN(CCO)CCCC#C[C@H]1CC[C@H](N(C)C(=O)Oc2ccc(Cl)cc2)CC1.Cl | Stable | Stable | 0.01 µM | 13.6 µM | 5.86 µM | 23.6 µM | 15.3 µM | 26.2 µM | > 30 µM | Active | Active | 13.4 µM | 21.1 µM | 10% | 4.81 µM | 8.64 µM | > 30 µM | 29.1 µM | 2.51 | 2.87 ×10⁻⁶ cm/s | 
8 | CN(CCO)CCCCC[C@H]1CC[C@H](N(C)S(=O)(=O)c2ccc(C(F)(F)F)cc2)CC1.O=C(O)/C=C/C(=O)O | Stable | Stable | 0.0112 µM | 6.09 µM | 4.28 µM | > 30 µM | > 30 µM | 20.9 µM | > 30 µM | Active | Active | > 30 µM | > 30 µM | 50% | 2.67 µM | 4.53 µM | 12.3 µM | 19 µM | 3.07 | 1.79 ×10⁻⁶ cm/s | 
